Data reported in patent publication US9499510B2, “Pro-drug compounds” (Proximagen Limited, priority 2012, dated 2016).
Structures can show the parent of a compound that is named as a salt.

What was measured:
[1] = Solubility in aqueous solution (pH 2 to 10); format: physicochemical
Text: In an embodiment, prodrugs of the present invention are suitable for oral administration. The skilled person understands that the pH of the gastrointestinal tract changes along its length. For example, the stomach has a pH of around pH 1.5 and the GI tract after the stomach has a pH of around 5 to 7.5. For more detail see, for example, Measurement of gastrointestinal pH profiles in normal ambulant human subjects, Gut. 1988 August; 29(8): 1035-1041. Improved solubility is expected to result in improved absorption, and therefore improved oral bioavailability. Thus improved solubility at any pH value between around pH 1.5 to 8 is expected to improve oral bioavailability. Compounds of the invention were assessed for solubility in aqueous solutions having a pH of from 2 to 10. In an embodiment prodrugs of the invention have a solubility of >0.5 mg/mL in an aqueous solution having a pH of from 2 to 10, including from 2 to 8. In an embodiment prodrugs have a solubility of >5.0 mg/mL, or >10.0 mg/mL, >100.0 mg/mL, or >200.0 mg/mL in an aqueous solution having a pH of from 2 to 10, including from 2 to 8. In an embodiment the prodrugs have the aforementioned aqueous solubility at a pH within the range of from 4 to 8, or from 6 to 8.
In an embodiment, prodrugs of the invention are administered intravenously. High prodrug solubility is advantageous in order to reduce the volume of solution administered to the patient, and to reduce the risk of damage to the circulatory system. Solubility in an aqueous solution having a pH of from 2 to 10 of >10 mg/mL is preferred. Yet more preferred is solubility in an aqueous solution having a pH of from 2 to 10 of >30 mg/mL or >100.0 mg/mL. Yet more preferred is solubility in an aqueous solution having a pH of from 2 to 10 of >200.0 mg/mL. The solubility is measured in an aqueous solution having a pH of from 2 to 10, which pH range is advantageous for intravenous prodrug delivery. See, for example, A guide on intravenous drug compatibilities based on their pH, Nasser S C et al./Pharmacie Globale (IJCP) 2010, 5 (01)). In an embodiment the prodrugs of the claimed invention have solubility of >10 mg/mL in an aqueous solution having a pH of from 2 to 10. In an embodiment the prodrugs have the aforementioned aqueous solubility at a pH within the range of from 2 to 8, or from 4 to 8, or from 6 to 8. The solubility of the Examples is illustrated in Table 1.

[2] = biological target: T1, human ether a go-go related gene (hERG) K+ channel (Homo sapiens, UniProt Q12809); experiment: hERG assay, IonWorks patch clamp electrophysiology; format: cell-based; details: Chinese Hamster Lung cell line stably expressing hERG; maximum assay concentration 33 uM
T1 construct: Chinese Hamster Lung cell line stably expressing the full length hERG channel; expressed in transfected cells; host or cells: Chinese Hamster Lung cell line
T1 sequence (Q12809 whole entry): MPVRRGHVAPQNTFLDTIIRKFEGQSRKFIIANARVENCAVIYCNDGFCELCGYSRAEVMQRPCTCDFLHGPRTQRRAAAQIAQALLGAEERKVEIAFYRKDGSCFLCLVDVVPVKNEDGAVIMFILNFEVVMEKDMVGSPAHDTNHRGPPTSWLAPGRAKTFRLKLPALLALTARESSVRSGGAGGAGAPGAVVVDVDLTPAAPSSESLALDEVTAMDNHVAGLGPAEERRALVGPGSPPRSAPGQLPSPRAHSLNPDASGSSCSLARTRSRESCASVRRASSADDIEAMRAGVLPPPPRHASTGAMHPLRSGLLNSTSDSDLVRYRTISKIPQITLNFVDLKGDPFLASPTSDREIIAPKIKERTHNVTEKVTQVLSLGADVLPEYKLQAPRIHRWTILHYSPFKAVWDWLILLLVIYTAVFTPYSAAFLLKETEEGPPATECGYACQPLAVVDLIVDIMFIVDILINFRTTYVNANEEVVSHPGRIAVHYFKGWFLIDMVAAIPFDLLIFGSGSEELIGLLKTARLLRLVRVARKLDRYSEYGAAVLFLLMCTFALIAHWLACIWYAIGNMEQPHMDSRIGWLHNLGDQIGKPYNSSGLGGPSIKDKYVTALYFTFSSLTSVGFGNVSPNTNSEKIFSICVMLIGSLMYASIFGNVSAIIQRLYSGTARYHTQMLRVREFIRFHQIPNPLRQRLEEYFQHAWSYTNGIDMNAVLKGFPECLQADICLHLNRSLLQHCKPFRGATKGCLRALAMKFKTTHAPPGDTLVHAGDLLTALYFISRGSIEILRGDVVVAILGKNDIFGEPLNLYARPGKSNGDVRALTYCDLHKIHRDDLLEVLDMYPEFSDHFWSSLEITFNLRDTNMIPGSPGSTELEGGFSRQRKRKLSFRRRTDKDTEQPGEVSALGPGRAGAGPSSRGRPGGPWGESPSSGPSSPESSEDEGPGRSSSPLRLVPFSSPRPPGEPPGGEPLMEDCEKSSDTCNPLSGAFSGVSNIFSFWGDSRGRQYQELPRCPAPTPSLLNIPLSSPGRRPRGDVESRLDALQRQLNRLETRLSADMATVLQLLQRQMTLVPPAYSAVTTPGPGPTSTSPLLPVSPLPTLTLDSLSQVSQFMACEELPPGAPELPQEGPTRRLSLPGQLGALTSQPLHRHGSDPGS
Procedure: Compounds of the invention were tested for inhibition of the human ether a go-go related gene (hERG) K^+ channel using IonWorks patch clamp electrophysiology. 8 Point concentration-response curves were generated on two occasions using 3-fold serial dilutions from the maximum assay concentration (33 uM). Electrophysiological recordings were made from a Chinese Hamster Lung cell line stably expressing the full length hERG channel. Single cell ion currents were measured in the perforated patch clamp configuration (100 ug/mL amphoterocin) at room temperature using an IonWorks Quattro instrument. The internal solution contained 140 mM KCl, 1 mM MgCl2, 1 mM EGTA and 20 mM HEPES and was buffered to pH 7.3. The external solution contained 138 mM NaCl, 2.7 mM KCl, 0.9 mM CaCl2, 0.5 mM MgCl2, 8 mM Na2HPO4 and 1.5 mM KH2PO4, and was buffered to pH 7.3. Cells were clamped at a holding potential of […] for 30 s and then stepped to +40 mV for 1 s. This was followed by a hyperpolarising step of 1 s to […] to evoke the hERG tail current. This sequence was repeated 5 times at a frequency of 0.25 Hz. Currents were measured from the tail step at the 5th pulse, and referenced to the holding current. Compounds were incubated for 6-7 min prior to a second measurement of the hERG signal using an identical pulse train. A minimum of 17 cells were required for each pIC50 curve fit. […]

`CNCC(=O)O[C@H]1[C@@H](NC(=O)c2ccc(F)c(Cl)c2)c2cc(C(C)=O)ccc2OC1(C)C` [Example 7, (3S,4S)-6-acetyl-4-[(3-chloro-4-fluorobenzene)amido]-2,2-di methyl-3,4-dihydro-2H-1-benzopyran-3-yl 2-(methylamino)acetate hydrochloride] showed a solubility ([1]; pH 4.4, aqueous buffer) of over 20000 µg/mL.

`CC(=O)c1ccc2c(c1)[C@H](NC(=O)c1ccc(F)c(Cl)c1)[C@H](OC(=O)CN)C(C)(C)O2` [Example 6, (3S,4S)-6-Acetyl-4-[(3-chloro-4-fluorobenzene)amido]-2,2-di methyl-3,4-dihydro-2H-1-benzopyran-3-yl 2-aminoacetate hydrochloride] gave a solubility ([1]; aqueous buffer, pH 4.0) of over 20000 µg/mL.

Work on `CC(=O)c1ccc2c(c1)[C@H](NC(=O)c1ccc(F)c(Cl)c1)[C@H](OC(=O)CNC(C)C)C(C)(C)O2.Cl` [Example 11, (3S,4S)-6-Acetyl-4-[(3-chloro-4-fluorobenzene)amido]-2,2-di methyl-3,4-dihydro-2H-1-benzopyran-3-yl 2-[(propan-2-yl)amino]acetate hydrochloride] yielded a solubility ([1]; pH 4.2, aqueous buffer) of over 10000 µg/mL.

`CC(=O)c1ccc2c(c1)[C@H](NC(=O)c1ccc(F)c(Cl)c1)[C@H](OCOC(=O)CN(C)C)C(C)(C)O2` [Example 5, {[(3S,4S)-6-Acetyl-4-[(3-chloro-4-fluorobenzene)amido]-2,2-dimethyl-3,4-dihydro-2H-1-benzopyran-3-yl]oxy}methyl 2-(dimethylamino)acetate] gave a solubility ([1]; aqueous buffer, pH 3.0) of over 2000 µg/mL.

`CCCNCC(=O)O[C@H]1[C@@H](NC(=O)c2ccc(F)c(Cl)c2)c2cc(C(C)=O)ccc2OC1(C)C.Cl` [Example 10, (3S,4S)-6-Acetyl-4-[(3-chloro-4-fluorobenzene)amido]-2,2-di methyl-3,4-dihydro-2H-1-benzopyran-3-yl 2-(propylamino)acetate hydrochloride] gave a solubility ([1]; pH 4.4, aqueous buffer) of over 10000 µg/mL.

`CC(=O)c1ccc2c(c1)[C@H](NC(=O)c1ccc(F)c(Cl)c1)[C@H](OC(=O)CN(C)C)C(C)(C)O2` [Example 2, (3S,4S)-6-Acetyl-4-[(3-chloro-4-fluorobenzene)amido]-2,2-dimethyl-3,4-dihydro-2H-1-benzopyran-3-yl 2-(dimethylamino)acetate hydrochloride] gave a solubility ([1]; pH 3.6, aqueous buffer) of over 20000 µg/mL.

In the case of `CC(=O)c1ccc2c(c1)[C@H](NC(=O)c1ccc(F)c(Cl)c1)[C@H](OCOP(=O)(O)O)C(C)(C)O2` [Example 8, ({[(3S,4S)-6-Acetyl-4-[(3-chloro-4-fluorobenzene)amido]-2,2-dimethyl-3,4-dihydro-2H-1-benzopyran-3-yl]oxy}methoxy)phosphonic acid diamine], the solubility ([1]; pH 5.7, aqueous buffer) is reported as over 200000 µg/mL.

Compound `CC(=O)OCO[C@H]1[C@@H](NC(=O)c2ccc(F)c(Cl)c2)c2cc(C(C)=O)ccc2OC1(C)C` [Example 4, {[(3S,4S)-6-Acetyl-4-[(3-chloro-4-fluorobenzene)amido]-2,2-dimethyl-3,4-dihydro-2H-1-benzopyran-3-yl]oxy}methyl acetate] has a solubility ([1]; pH 3.5, aqueous buffer) of under 250 µg/mL.

For `CC(=O)c1ccc2c(c1)[C@H](NC(=O)c1ccc(F)c(Cl)c1)[C@H](OC(=O)[C@@H](N)CC(C)C)C(C)(C)O2.Cl` [Example 9, (3S,4S)-6-Acetyl-4-[(3-chloro-4-fluorobenzene)amido]-2,2-di methyl-3,4-dihydro-2H-1-benzopyran-3-yl(2S)-2-amino-4-methylpentanoate hydrochloride], the solubility ([1]; pH 2.7, aqueous buffer) was over 5000 µg/mL.

`CC(=O)O[C@H]1[C@@H](NC(=O)c2ccc(F)c(Cl)c2)c2cc(C(C)=O)ccc2OC1(C)C` [Example 3, (3S,4S)-6-Acetyl-4-[(3-chloro-4-fluorobenzene)amido]-2,2-dimethyl-3,4-dihydro-2H-1-benzopyran-3-yl acetate] showed a solubility ([1]; pH 3.5, aqueous buffer) of under 250 µg/mL.

`CC(=O)c1ccc2c(c1)[C@H](NC(=O)c1ccc(F)c(Cl)c1)[C@H](OP(=O)(O)O)C(C)(C)O2` [Example 1, {[(3S,4S)-6-Acetyl-4-[(3-chloro-4-fluorobenzene)amido]-2,2-dimethyl-3,4-dihydro-2H-1-benzopyran-3-yl]oxy}phosphonic acid] showed a solubility ([1]; pH 5.7, aqueous buffer) of over 50000 µg/mL and an IC50 [2] of over 11 µM.
